In ChEMBL document CHEMBL1201862, “PubChem BioAssay data set” (2004):
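Dose response: 5 concentrations. Exposure: 48 h. Format: 96-well plates. Endpoint: linear interpolation; highest concentration if not reached. Here, GI50 denotes the concentration required for 50% inhibition of growth.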 Calls of active or inactive are those of the source. No stated cut-off is given here; in the data, active = GI50 up to about 1.1 µM and inactive = higher.

What was measured:
Test in all cases: DTP human tumour cell line panel, 48 h
[1] = system: MOLT-4
[2] = system: SW-620
[3] = system: OVCAR-3
[4] = system: RXF 393
[5] = system: SR
[6] = system: HOP-62
[7] = system: SNB-19
[8] = system: HCC 2998
[9] = system: XF498
[10] = system: KM-20L2
[11] = system: UACC-62
[12] = system: 786-0
[13] = system: NCI-H522
[14] = system: K562
[15] = system: HOP-92
[16] = system: EKVX
[17] = system: TK-10
[18] = system: HL-60
[19] = system: NCI-H460
[20] = system: COLO 205
[21] = system: ACHN
[22] = system: HOP-18
[23] = system: UO-31
[24] = system: DLD-1
[25] = system: SK-MEL-28
[26] = system: SNB-75
[27] = system: SNB-78
[28] = system: DMS-273
[29] = system: SF-295
[30] = system: OVCAR-8
[31] = system: U-251
[32] = system: IGROV-1
[33] = system: CCRF-CEM
[34] = system: HCT-116
[35] = system: HCT-15
[36] = system: M14
[37] = system: UACC-257
[38] = system: OVCAR-4
[39] = system: Malme-3M
[40] = system: A549
[41] = system: DMS-114
[42] = system: M19-MEL
[43] = system: RPMI-8226
[44] = system: SK-MEL-2
[45] = system: SF-539
[46] = system: A498
[47] = system: KM12
[48] = system: NCI-H23
[49] = system: SK-OV-3
[50] = system: HT-29
[51] = system: LOX IMVI
[52] = system: SN12C
[53] = system: NCI-H226
[54] = system: SF-268
[55] = system: LXFL 529
[56] = system: CAKI-1
[57] = system: SK-MEL-5
[58] = system: OVCAR-5

Nc1ccccc1C(=O)C(Br)C(Br)c1ccc2c(c1)OCO2 (stereo unspecified)
GI50 [1]: 25.1 µM (inactive)
GI50 [2]: 32.6 µM (inactive)
GI50 [3]: 16.7 µM (inactive)
GI50 [4]: 19.7 µM (inactive)
GI50 [5]: 46.1 µM (inactive)
GI50 [6]: 21.8 µM (inactive)
GI50 [7]: 26.1 µM (inactive)
GI50 [8]: 20.3 µM (inactive)
GI50 [9]: 16.7 µM (inactive)
GI50 [10]: 17.2 µM (inactive)
GI50 [11]: 16.8 µM (inactive)
GI50 [12]: 31 µM (inactive)
GI50 [13]: 18.5 µM (inactive)
GI50 [14]: 31.1 µM (inactive)
GI50 [15]: 15 µM (inactive)
GI50 [16]: 21.3 µM (inactive)
GI50 [17]: 27.4 µM (inactive)
GI50 [18]: 40.7 µM (inactive)
GI50 [19]: 18.6 µM (inactive)
GI50 [20]: 14.2 µM (inactive)
GI50 [21]: 18.2 µM (inactive)
GI50 [22]: 16.7 µM (inactive)
GI50 [23]: 15.5 µM (inactive)
GI50 [24]: 33.6 µM (inactive)
GI50 [25]: 23.4 µM (inactive)
GI50 [26]: 20.9 µM (inactive)
GI50 [27]: 24.3 µM (inactive)
GI50 [28]: 15.1 µM (inactive)
GI50 [29]: 27.6 µM (inactive)
GI50 [30]: 27.6 µM (inactive)
GI50 [31]: 21.6 µM (inactive)
GI50 [32]: 28.6 µM (inactive)
GI50 [33]: 26 µM (inactive)
GI50 [34]: 16.4 µM (inactive)
GI50 [35]: 20.8 µM
GI50 [36]: 18.4 µM (inactive)
GI50 [37]: 19.1 µM (inactive)
GI50 [38]: 27.4 µM (inactive)
GI50 [39]: 18.4 µM (inactive)
GI50 [40]: 20.6 µM (inactive)
GI50 [41]: 18.2 µM (inactive)
GI50 [42]: 17.8 µM (inactive)
GI50 [43]: 33.7 µM (inactive)
GI50 [44]: 16.9 µM (inactive)
GI50 [45]: 18.4 µM (inactive)
GI50 [46]: 24.4 µM (inactive)
GI50 [47]: 18 µM (inactive)
GI50 [48]: 19.9 µM (inactive)
GI50 [49]: 28.6 µM (inactive)
GI50 [50]: 17.3 µM (inactive)
GI50 [51]: 14 µM (inactive)
GI50 [52]: 24.9 µM (inactive)
GI50 [53]: 20 µM (inactive)
GI50 [54]: 26.4 µM (inactive)
GI50 [55]: 16.7 µM (inactive)

COc1cc2c(cc1OC)C(CC(=O)NN=C(C)C)NCC2 (stereo unspecified)
GI50 [1]: > 100 µM (inactive)
GI50 [2]: > 100 µM (inactive)
GI50 [3]: > 100 µM (inactive)
GI50 [4]: > 100 µM (inactive)
GI50 [5]: > 100 µM (inactive)
GI50 [6]: > 100 µM (inactive)
GI50 [7]: > 100 µM (inactive)
GI50 [8]: > 100 µM (inactive)
GI50 [9]: 96.6 µM (inactive)
GI50 [10]: > 100 µM (inactive)
GI50 [11]: > 100 µM (inactive)
GI50 [56]: > 100 µM (inactive)
GI50 [12]: > 100 µM (inactive)
GI50 [13]: > 100 µM (inactive)
GI50 [14]: > 100 µM (inactive)
GI50 [15]: > 100 µM (inactive)
GI50 [16]: > 100 µM (inactive)
GI50 [17]: > 100 µM (inactive)
GI50 [57]: > 100 µM (inactive)
GI50 [18]: > 100 µM (inactive)
GI50 [19]: > 100 µM (inactive)
GI50 [20]: > 100 µM (inactive)
GI50 [21]: > 100 µM (inactive)
GI50 [22]: > 100 µM (inactive)
GI50 [23]: > 100 µM (inactive)
GI50 [24]: > 100 µM (inactive)
GI50 [25]: > 100 µM (inactive)
GI50 [26]: > 100 µM (inactive)
GI50 [27]: > 100 µM (inactive)
GI50 [28]: > 100 µM (inactive)
GI50 [29]: > 100 µM (inactive)
GI50 [30]: > 100 µM (inactive)
GI50 [31]: > 100 µM (inactive)
GI50 [32]: > 100 µM (inactive)
GI50 [33]: > 100 µM (inactive)
GI50 [34]: > 100 µM (inactive)
GI50 [35]: > 100 µM
GI50 [36]: > 100 µM (inactive)
GI50 [37]: > 100 µM (inactive)
GI50 [38]: > 100 µM (inactive)
GI50 [39]: > 100 µM (inactive)
GI50 [40]: > 100 µM (inactive)
GI50 [41]: > 100 µM (inactive)
GI50 [42]: > 100 µM (inactive)
GI50 [43]: > 100 µM (inactive)
GI50 [44]: > 100 µM (inactive)
GI50 [58]: > 100 µM (inactive)
GI50 [45]: > 100 µM (inactive)
GI50 [46]: > 100 µM (inactive)
GI50 [47]: > 100 µM (inactive)
GI50 [48]: > 100 µM (inactive)
GI50 [49]: > 100 µM (inactive)
GI50 [50]: > 100 µM (inactive)
GI50 [51]: > 100 µM (inactive)
GI50 [52]: > 100 µM (inactive)
GI50 [53]: > 100 µM (inactive)
GI50 [54]: > 100 µM (inactive)
GI50 [55]: > 100 µM (inactive)

COc1ccccc1NC(=O)CC(=O)n1nc(C)c(/N=N/c2ccccc2F)c1C
GI50 [1]: > 31.6 µM (inactive)
GI50 [2]: > 100 µM (inactive)
GI50 [3]: > 100 µM (inactive)
GI50 [4]: > 57.3 µM (inactive)
GI50 [5]: 71.8 µM (inactive)
GI50 [6]: 32.6 µM (inactive)
GI50 [7]: > 76 µM (inactive)
GI50 [8]: > 100 µM (inactive)
GI50 [9]: 40 µM (inactive)
GI50 [10]: > 100 µM (inactive)
GI50 [11]: > 100 µM (inactive)
GI50 [56]: > 100 µM (inactive)
GI50 [12]: 76.6 µM (inactive)
GI50 [13]: > 100 µM (inactive)
GI50 [14]: > 31.6 µM (inactive)
GI50 [15]: 37.7 µM (inactive)
GI50 [16]: > 100 µM (inactive)
GI50 [17]: > 100 µM (inactive)
GI50 [57]: > 100 µM (inactive)
GI50 [18]: > 100 µM (inactive)
GI50 [19]: > 100 µM (inactive)
GI50 [20]: > 100 µM (inactive)
GI50 [21]: > 100 µM (inactive)
GI50 [22]: > 100 µM (inactive)
GI50 [23]: > 100 µM (inactive)
GI50 [24]: > 100 µM (inactive)
GI50 [25]: > 100 µM (inactive)
GI50 [26]: 9.46 µM (inactive)
GI50 [27]: 17.3 µM (inactive)
GI50 [28]: > 100 µM (inactive)
GI50 [29]: > 52 µM (inactive)
GI50 [30]: 44.6 µM (inactive)
GI50 [31]: 58.6 µM (inactive)
GI50 [32]: > 100 µM (inactive)
GI50 [33]: > 10 µM (inactive)
GI50 [34]: > 31.6 µM (inactive)
GI50 [35]: > 100 µM
GI50 [36]: > 100 µM (inactive)
GI50 [37]: > 100 µM (inactive)
GI50 [38]: > 100 µM (inactive)
GI50 [39]: > 10 µM (inactive)
GI50 [40]: 98.4 µM (inactive)
GI50 [41]: > 100 µM (inactive)
GI50 [42]: > 100 µM (inactive)
GI50 [43]: > 100 µM (inactive)
GI50 [44]: > 100 µM (inactive)
GI50 [58]: > 100 µM (inactive)
GI50 [45]: 21.5 µM (inactive)
GI50 [46]: > 100 µM (inactive)
GI50 [47]: > 100 µM (inactive)
GI50 [48]: > 96.2 µM (inactive)
GI50 [49]: 31.3 µM (inactive)
GI50 [50]: > 100 µM (inactive)
GI50 [51]: > 100 µM (inactive)
GI50 [52]: > 100 µM (inactive)
GI50 [53]: 45.1 µM (inactive)
GI50 [54]: 28.7 µM (inactive)
GI50 [55]: > 100 µM (inactive)
